According to ChEMBL document CHEMBL1139858, “Design, synthesis, and X-ray structure of potent memapsin 2 (beta-secretase) inhibitors with isophthalamide derivatives as the P2-P3-ligands” (J Med Chem, 2007):

Legend:
Beta-secretase 1 [1] = molecular target: T1, Beta-secretase 1 (Homo sapiens, UniProt P56817)
Description: Inhibition of recombinant memapsin 2

Cathepsin D = Cathepsin D (Homo sapiens, UniProt P07339)
Description: Inhibition of human cathepsin D

Beta-secretase 1 [2] = molecular target: T1, Beta-secretase 1; remark: listed apart in the source
Description: Inhibition of memapsin 2 expressed in CHO cells

Sequence of Cathepsin D (P07339 65-162 limits assumed): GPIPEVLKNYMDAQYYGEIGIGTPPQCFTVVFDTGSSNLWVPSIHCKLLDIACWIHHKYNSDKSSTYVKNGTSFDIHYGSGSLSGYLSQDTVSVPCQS
Sequence of Cathepsin D (P07339 169-412 limits assumed): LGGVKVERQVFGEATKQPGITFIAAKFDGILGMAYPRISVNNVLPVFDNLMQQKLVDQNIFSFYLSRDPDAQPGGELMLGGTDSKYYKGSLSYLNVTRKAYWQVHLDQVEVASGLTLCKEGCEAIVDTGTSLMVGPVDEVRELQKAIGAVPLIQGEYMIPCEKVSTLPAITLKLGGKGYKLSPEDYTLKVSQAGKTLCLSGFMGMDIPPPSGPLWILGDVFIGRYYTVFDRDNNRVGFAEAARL
T1 sequence (P56817 whole entry): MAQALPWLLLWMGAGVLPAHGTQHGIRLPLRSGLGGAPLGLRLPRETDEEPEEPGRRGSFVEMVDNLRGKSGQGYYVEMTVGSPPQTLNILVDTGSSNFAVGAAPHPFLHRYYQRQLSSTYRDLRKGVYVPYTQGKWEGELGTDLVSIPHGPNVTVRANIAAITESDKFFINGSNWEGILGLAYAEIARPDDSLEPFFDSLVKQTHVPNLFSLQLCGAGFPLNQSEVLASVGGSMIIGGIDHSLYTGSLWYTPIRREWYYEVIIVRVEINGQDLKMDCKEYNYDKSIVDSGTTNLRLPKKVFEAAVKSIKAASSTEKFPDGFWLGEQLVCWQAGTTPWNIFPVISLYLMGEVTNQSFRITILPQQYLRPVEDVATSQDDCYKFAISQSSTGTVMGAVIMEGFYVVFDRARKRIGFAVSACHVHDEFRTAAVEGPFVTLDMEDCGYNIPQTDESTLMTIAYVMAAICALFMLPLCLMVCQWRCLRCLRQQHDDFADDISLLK

Row | Ki (Beta-secretase 1 [1]) | Ki (Cathepsin D) | IC50 (Beta-secretase 1 [2]) | SMILES
1 | 52.5 nM | 483 nM | 3600 nM | CCCNC(=O)c1cc(C(=O)N[C@@H](CC(C)C)[C@@H](O)C[C@@H](C)C(=O)N[C@H](C(=O)NC(C)C)C(C)C)cc(N(C)S(C)(=O)=O)c1
2 | 1.8 nM | 245 nM | 1800 nM | Cc1nc(CNC(=O)c2cc(C(=O)N[C@@H](CC(C)C)[C@@H](O)C[C@@H](C)C(=O)N[C@H](C(=O)NC(C)C)C(C)C)cc(N(C)S(C)(=O)=O)c2)c(C)o1
3 | 438 nM | – | 190000 nM | CC(C)C[C@H](NC(=O)c1cc(C(=O)N[C@H](CO)c2ccccc2)cc(N(C)S(C)(=O)=O)c1)[C@@H](O)C[C@@H](C)C(=O)N[C@H](C(=O)NC(C)C)C(C)C
4 | 27 nM | 490 nM | 10300 nM | Cc1nc(C(C)NC(=O)c2cc(C(=O)N[C@@H](CC(C)C)[C@@H](O)C[C@@H](C)C(=O)N[C@H](C(=O)NC(C)C)C(C)C)cc(N(C)S(C)(=O)=O)c2)c(C)o1 (some centres not stated)

Row | SMILES | Ki (Beta-secretase 1 [1]) | Ki (Cathepsin D) | IC50 (Beta-secretase 1 [2])
5 | CCCNC(=O)c1cccc(C(=O)N[C@@H](CC(C)C)[C@@H](O)C[C@@H](C)C(=O)N[C@H](C(=O)NC(C)C)C(C)C)c1 | 788 nM | – | –
